The text below walks through data of article PMC8513058, “Synthesis and Evaluation of Novel 1,2,6-Thiadiazinone Kinase Inhibitors as Potent Inhibitors of Solid Tumors” (Molecules, 2021).

One data set relates to PANC-1 cells. Briefly: Cancer cell line viability screen (alamarBlue), PANC1. To be noted: Homo sapiens, PANC-1, 72 h, read-out: IC50 PANC1.
Another data set deals with WS-1 cell line. Description: Toxicity control viability screen (alamarBlue), WS-1 skin fibroblasts. To be noted: for IC50: WS1, 72 h, read-out: IC50 WS-1. (Alamar Blue is a resazurin reagent that responds to reducing activity.)
In a further data set the test system is A-431 cells. Briefly: Cancer cell line viability screen (alamarBlue), A431. To be noted: Homo sapiens, A-431, 72 h, read-out: IC50 A431.
For another data set, the system named is MCF-7 cells. Description: Cancer cell line viability screen (alamarBlue), MCF7. Conditions: Homo sapiens, MCF7, 72 h, read-out: IC50 MCF7.
A further data set deals with DU145 cells. Description: Cancer cell line viability screen (alamarBlue), DU145. To be noted: Homo sapiens, DU-145, 72 h, read-out: IC50 DU145.
For another data set, the system named is U-CH2 cells. Description: Cancer cell line viability screen (alamarBlue), UCH2. To be noted: UCH2, 72 h, read-out: IC50 UCH2.
The test system of the next data set is 5637 cells. Description: Cancer cell line viability screen (alamarBlue), 5637. Conditions: 72 h, read-out: IC50 5637.
A further data set concerns U-CH1 cells. Briefly: Cancer cell line viability screen (alamarBlue), UCH1. Conditions: UCH1, 72 h, read-out: IC50 UCH1.
Data set [1] relates to kinases in SUM159 cell lysates. Description: MIBS kinome profiling (MIB-MS competitive displacement). It counts as binding. Conditions: 1 μM compound vs DMSO, SUM159 lysate. As for the experimental part:
We then assessed the kinome profile of thiadiazinones 16, 17, and 26 all at 1 μM using a multiplexed kinase inhibitor bead set and quantitative mass spectrometry for detection of kinase peptides (MIB-MS). The MIB-MS proteomics was able to detect between 350 and 400 kinases in the cell lysates and competitive displacement of specific kinases from the beads was used to determine the kinome profile of the thiadiazinone kinase inhibitors.
Previously described. Briefly, multiplexed inhibitor beads (MIBS) affinity chromatography/MS analysis: SUM159 cells were cultured in a 50:50 mixture of DMEM and Nutrient Mixture F-12 medium (Gibco) supplemented with 5% fetal bovine serum, 1% anti/anti, […] insulin, and […] hydrocortisone. Cells were maintained at 37 °C in a humidified 5% CO2 atmosphere. SUM159 cells were grown to 80% confluency, washed twice with PBS, and harvested by scraping cells in lysis buffer [50 mM HEPES, pH 7.5, 150 mM NaCl, 0.5% Triton X-100, 1 mM EDTA, 1 mM EGTA, 10 mM NaF, 2.5 mM Na3VO4, complete protease inhibitor cocktail (Roche, Basel, Switzerland), phosphatase inhibitor cocktail 2, and 3 (Sigma, St. Louis, MO, USA)]. Lysates were sonicated then clarified by centrifugation at 14000 V g for 15 min at 4 °C. Lysate was then filtered through a […] syringe filter and frozen at −80 °C until use. Protein concentration was quantified using a Bradford assay the day of the experiment. DMSO or the indicated concentration of 16, 17, and 26 were added to lysate containing 4 mg of total protein. Lysates were vortexed briefly then incubated for 30 min on ice. Kinases were affinity purified as previously described. Briefly, lysates were diluted to 1.33 mg mL^−1 with lysis buffer then NaCl concentration brought to 1 M.
Diluted lysates were passed over a mixture of […] of settled beads of each of the following inhibitors conjugated to ECH Sepharose beads: Purvalanol B, PP58, VI-16832, UNC21474A, UNC8088A, and […] of settled beads conjugated to CTx-0294885 and VI-16832 [69]. The kinase inhibitor–bead conjugates were previously equilibrated in high-salt buffer (50 mM HEPES pH 7.5, 1M NaCl, 0.5% Triton X-100, 1 mM EDTA, and 1 mM EGTA). MIBs columns were sequentially washed with high-salt buffer, low-salt buffer (50 mm HEPES pH 7.5, 150 mM NaCl, 0.5% Triton X-100, 1 mM EDTA, and 1 mM EGTA), and SDS buffer (50 mm HEPES pH 7.5, 150 mm NaCl, 0.5% Triton X-100, 1 mm EDTA, 1 mm EGTA, and 0.1% SDS). Proteins were eluted by boiling samples in elution buffer (100 mM Tris·HCl pH 6.8, 0.5% SDS, and 1% β-mercaptoethanol) for 15 min twice. Dithiothreitol (DTT) was added to a final concentration of 5 mm and samples were incubated at 60 °C for 25 min. Samples were then cooled to room temperature on ice and alkylated by adding iodoacetamide to a final concentration of 20 mm for 30 min in the dark at room temperature. Samples were then concentrated in 10K Amicon Ultra centrifugal concentrators (Millipore, Burlington, MA, USA) followed by methanol and chloroform precipitation of proteins. The final protein pellets were re-suspended in 50 mM HEPES pH 8.0 and incubated with trypsin at 37 °C overnight. Residual detergent was removed by three sequential ethyl acetate extractions then desalted using Pierce C18 spin columns (Thermo Scientific, Waltham, MA, USA) according to the manufacturer’s protocol.

The structures appear in SMILES notation.

Description for 5637 cells: (§1) This included pancreatic, bladder, prostate, breast, chordoma, and lung cancer cell lines while a skin fibroblast cell line was used as a toxicity control [33, 34, 35, 36].
(§2) DU145 and MCF-7 cells were cultured in MEM medium supplemented with 10% FBS and 1% penicillin/streptomycin. […] Cells were seeded in 384-well plates and were treated with test compound in quadruplicate 24 h after plating. Cell viability was assessed at 72 h using alamarBlue (ThermoFisher, Waltham, MA, USA). […] IC50 values were determined by nonlinear regression using GraphPad PrismTM software (GraphPad Software Inc., San Diego, CA, US).
Description for A-431 cells: as §1
(§3) Cells were seeded in 384-well plates and were treated with test compound in quadruplicate 24 h after plating. Cell viability was assessed at 72 h using alamarBlue (ThermoFisher, Waltham, MA, USA). […] IC50 values were determined by nonlinear regression using GraphPad PrismTM software (GraphPad Software Inc., San Diego, CA, US).
Description for DU145 cells: as §1, §2
Description for MCF-7 cells: as §1, §2
Description for PANC-1 cells: as §1, §2
Description for U-CH1 cells: as §1, §3
Description for U-CH2 cells: as §1, §3
Description for WS-1 cell line: as §1, §2

What is called IC50 is the concentration that inhibits the measured activity by half. The term melting point denotes the temperature of the solid-liquid transition. Regarding `CC(=O)c1cccc(Nc2nsnc(-c3ccnc4[nH]ccc34)c2=O)c1` [Compound 14, 3-[(3-Acetylphenyl)amino]-5-(1H-pyrrolo[2,3-b]pyridin-4-yl)-4H-1,2,6-thiadiazin-4-one], the melting point fell in the range of 271 to 273 °C. The IC50 in the data set on PANC-1 cells was more than 100 µM. In the data set on WS-1 cell line, the half-inhibitory concentration (IC50) worked out at 92 µM. Further, in the data set on A-431 cells, the IC50 is more than 100 µM. Further, the IC50 in the data set on MCF-7 cells was more than 100 µM. Also, in the data set on DU145 cells, the IC50 was more than 100 µM. The IC50 in the data set on U-CH2 cells was more than 100 µM. Besides, the IC50 in the data set on 5637 cells is 15 µM. Also, the IC50 in the data set on U-CH1 cells came to 58 µM.

Turning to `COc1cccc(Nc2nsnc(-c3ccnc4[nH]ccc34)c2=O)c1` [Compound 15, 3-[(3-Methoxyphenyl)amino]-5-(1H-pyrrolo[2,3-b]pyridin-4-yl)-4H-1,2,6-thiadiazin-4-one], the melting point was in the range of 257 to 258 °C. Also, the IC50 in the data set with PANC-1 cells was more than 100 µM. Besides, in the data set on WS-1 cell line, the IC50 was more than 100 µM. For the same compound, the IC50 with A-431 cells is more than 100 µM. Moreover, in the data set with MCF-7 cells, the IC50 is more than 100 µM. The IC50 in the data set with DU145 cells is more than 100 µM. In the data set with U-CH2 cells, the IC50 was more than 100 µM. The IC50 in the data set on 5637 cells is 15 µM. Also, the IC50 in the data set with U-CH1 cells amounted to 67 µM.

`Cc1ccc(Nc2nsnc(-c3ccnc4[nH]ccc34)c2=O)cc1O` [Compound 17, 3-[(3-Hydroxy-4-methylphenyl)amino]-5-(1H-pyrrolo[2,3-b]pyridin-4-yl)-4H-1,2,6-thiadiazin-4-one] showed a melting point of 292 to 293 °C. The IC50 with PANC-1 cells was more than 100 µM. Further, the IC50 with WS-1 cell line is more than 100 µM. Also, in the data set on A-431 cells, the IC50 is more than 100 µM. For the same compound, the IC50 with MCF-7 cells turned out to be 14 µM. In the data set with DU145 cells, the IC50 came out at 23 µM. In addition, in data set [1], the “kinases competitively displaced from the beads (hits)” value was “AKT2, MAP2K4, MAP2K1, and STK35 being just below the threshold”. In addition, the kinome profile result in data set [1] (350-400 kinases detected) is “narrow spectrum kinome profile”. The IC50 with U-CH2 cells is more than 100 µM. In addition, in the data set on 5637 cells, the IC50 was found to be 2.1 µM. Besides, the IC50 with U-CH1 cells was more than 100 µM.

Take `Cc1ccc(O)cc1Nc1nsnc(-c2ccnc3[nH]ccc23)c1=O` [Compound 18, 3-[(5-Hydroxy-2-methylphenyl)amino]-5-(1H-pyrrolo[2,3-b]pyridin-4-yl)-4H-1,2,6-thiadiazin-4-one]: the melting point is 304 to 305 °C. In the data set on PANC-1 cells, the IC50 is more than 100 µM. The IC50 with WS-1 cell line was more than 100 µM. The IC50 with A-431 cells is more than 100 µM. Besides, the IC50 in the data set on MCF-7 cells is more than 100 µM. In addition, the IC50 in the data set with DU145 cells was more than 100 µM. The IC50 in the data set with U-CH2 cells is more than 100 µM. The IC50 in the data set on 5637 cells was 55 µM. In the data set on U-CH1 cells, the IC50 is more than 100 µM.

The compound `O=c1c(-c2ccnc3[nH]ccc23)nsnc1N1CCOCC1` [Compound 19, 3-Morpholino-5-(1H-pyrrolo[2,3-b]pyridin-4-yl)-4H-1,2,6-thiadiazin-4-one] came in with a melting point of 256 to 257 °C. Further, the IC50 with PANC-1 cells was found to be 11 µM. In addition, the IC50 with WS-1 cell line is more than 100 µM. In addition, the IC50 with A-431 cells is more than 100 µM. The IC50 in the data set on MCF-7 cells was 46 µM. Also, in the data set on DU145 cells, the IC50 worked out at 14 µM. In the data set with U-CH2 cells, the IC50 was more than 100 µM. For the same compound, the IC50 in the data set on 5637 cells is more than 100 µM. Moreover, in the data set on U-CH1 cells, the IC50 is more than 100 µM.

The compound `CN1CCN(c2nsnc(-c3ccnc4[nH]ccc34)c2=O)CC1` [Compound 20, 3-(4-Methylpiperazin-1-yl)-5-(1H-pyrrolo[2,3-b]pyridin-4-yl)-4H-1,2,6-thiadiazin-4-one] showed a melting point of 195 to 196 °C. Further, the IC50 with PANC-1 cells was more than 100 µM. In the data set with MCF-7 cells, the IC50 was more than 100 µM. In the data set with DU145 cells, the IC50 is more than 100 µM. In addition, in the data set with 5637 cells, the IC50 was more than 100 µM.

`CN1CCN(c2nsnc(Nc3ccnc4[nH]ccc34)c2=O)CC1` [Compound 21, 5-(4-Methylpiperazin-1-yl)-3-[(1H-pyrrolo[2,3-b]pyridin-4-yl)amino]-4H-1,2,6-thiadiazin-4-one] displayed a melting point of 286 to 287 °C. Also, the IC50 with PANC-1 cells is more than 100 µM. Also, the IC50 in the data set on WS-1 cell line is more than 100 µM. In addition, in the data set on A-431 cells, the IC50 was more than 100 µM. Also, the IC50 in the data set with MCF-7 cells is more than 100 µM. Moreover, the IC50 in the data set with DU145 cells came out at 51 µM. Moreover, in the data set on U-CH2 cells, the IC50 was more than 100 µM. Also, in the data set with 5637 cells, the IC50 was more than 100 µM. In the data set on U-CH1 cells, the IC50 was 97 µM.

For `CN1CCN(c2nsnc(Nc3ccc4[nH]ncc4c3)c2=O)CC1` [Compound 22, 3-[(1H-Indazol-5-yl)amino]-5-(4-methylpiperazin-1-yl)-4H-1,2,6-thiadiazin-4-one], the melting point was in the range of 262 to 263 °C. For the same compound, the IC50 in the data set with PANC-1 cells was more than 100 µM. The IC50 in the data set with WS-1 cell line came to 24 µM. For the same compound, in the data set with A-431 cells, the IC50 was more than 100 µM. Also, the IC50 in the data set with MCF-7 cells amounted to 25 µM. Also, the IC50 in the data set with DU145 cells is 50 µM. For the same compound, the half-maximal inhibitory concentration (IC50) with U-CH2 cells is more than 100 µM. Further, the IC50 in the data set with 5637 cells is more than 100 µM. Also, in the data set with U-CH1 cells, the IC50 was more than 100 µM.

In turn, `O=c1c(Nc2ccc3[nH]ncc3c2)nsnc1-c1cccc(O)c1` [Compound 23, 5-(3-Hydroxyphenyl)-3-[(1H-indazol-5-yl)amino]-4H-1,2,6-thiadiazin-4-one] returned a melting point of 282 to 283 °C. Also, in the data set on PANC-1 cells, the IC50 was more than 100 µM. Besides, the IC50 in the data set on WS-1 cell line is more than 100 µM. In the data set on A-431 cells, the IC50 is more than 100 µM. Besides, in the data set on MCF-7 cells, the IC50 stood at 92 µM. The IC50 with DU145 cells came out at 84 µM. Moreover, the IC50 in the data set on U-CH2 cells was more than 100 µM. Moreover, the IC50 in the data set with 5637 cells was more than 100 µM. In addition, in the data set on U-CH1 cells, the IC50 was determined as 71 µM.

As for `Cc1ccc(O)cc1-c1nsnc(Nc2ccc3[nH]ncc3c2)c1=O` [Compound 24, 5-(5-Hydroxy-2-methylphenyl)-3-[(1H-indazol-5-yl)amino]-4H-1,2,6-thiadiazin-4-one], the melting point is 268 to 269 °C. In addition, the IC50 in the data set on PANC-1 cells was found to be 26 µM. Moreover, the IC50 in the data set with WS-1 cell line was more than 100 µM. Moreover, the “IC50 WS-1” value with WS-1 cell line (skin fibroblast cell line, toxicity control, viability at 72 h, alamarBlue, average of 4 independent experiments) is on record as “no toxicity”. The IC50 with A-431 cells was more than 100 µM. Moreover, the IC50 with MCF-7 cells came out at 13 µM. Moreover, the IC50 in the data set with DU145 cells was determined as 15 µM. Further, the half-inhibitory concentration (IC50) in the data set with U-CH2 cells is more than 100 µM. Moreover, in the data set with 5637 cells, the IC50 was more than 100 µM. For the same compound, in the data set with U-CH1 cells, the IC50 was determined as 67 µM.

As to `COc1cccc(-c2nsnc(Nc3ccc4[nH]ncc4c3)c2=O)c1` [Compound 25, 3-[(1H-Indazol-5-yl)amino]-5-(3-methoxyphenyl)-4H-1,2,6-thiadiazin-4-one], the melting point was in the range of 220 to 221 °C. The IC50 in the data set with PANC-1 cells was more than 100 µM. Further, in the data set on WS-1 cell line, the IC50 was 71 µM. Besides, the IC50 in the data set on A-431 cells was more than 100 µM. Further, the IC50 in the data set with MCF-7 cells was found to be 38 µM. Besides, the IC50 in the data set on DU145 cells was more than 100 µM. For the same compound, the IC50 with U-CH2 cells was found to be 99 µM. For the same compound, in the data set with 5637 cells, the IC50 came to 13 µM. In addition, the IC50 in the data set on U-CH1 cells was found to be 52 µM.
